In patent US9364479B2, “Use of a receptor-type kinase modulator for treating polycystic kidney disease” (SYMPHONY EVOLUTION, INC., priority 2010, dated 2016):
Like-named read-outs stand apart in the source and are kept apart here.

Columns and labels:
bpk mice = test system: bpk mice
Source text: The BPK model of ARPKD retains the same altered location of EGFR that is seen in murine and human ADPKD. This model is therefore widely accepted as a general means for affecting the EGFR abnormality in PKD, both ARPKD and ADPKD. The BPK model arose as a spontaneous mutation in an inbred colony of BALB/c mice. Homozygous bpk mice develop massively enlarged kidneys and die of renal failure at an average postnatal age of 24 days (PN-24). […] Extra renal manifestations include biliary proliferation and ductal ectasia. Because of the recessive nature of the disease, wild type +/+ and heterozygous bpk/+ mice are phenotypically normal. The primary measurement used in these studies is a comparison of the kidney weight to body weight ratio (KW/BW). […] Additional measurements include assessment of renal function (BUN, creatinine and MUCA) and histological evaluation of kidney size and collecting tubules-cystic index (CT-CI).
These animals were housed in Medical College of Wisconsin vivarium facilities. All animal experiments were conducted in accordance with policies of the NIH Guide for the Care and Use of Laboratory Animals and the Institutional Animal Care and Use Committee of the Medical College of Wisconsin.
Animals were treated from PN-7 through PN-21 and evaluated for extent of disease. The identity of […] animals can be readily determined post-mortem by the presence of greatly enlarged kidneys. On PN-21, the study was terminated and animals were sacrificed. The mass of each animal was determined. Both kidneys from each animal were excised and weighed. The kidney weight to body weight ratio (KW/BW) was determined by the following formula: KW/BW=[mass of both kidneys]/[mass of animal].
In addition, renal cystic index (CI) was calculated. Lectins specific to the proximal tubules (PTs) (lotus tetragonolobus [LTA]) and collecting tubules (CTs) (Dolichos biflorus agglutins [DBA]) were stained and used to assess severity of cystic dilations on a scale from 0-5. Renal function was assessed by obtaining BUN and creatinine levels via cardiac puncture. MUCA was measured after keeping the animals without water for 12 hrs.

[1] = target: T1, Neurokinin, NK2 (NKA) (Human Recombinant) (Homo sapiens, UniProt P21452); assay: NovaScreen assay; assay type: binding; settings: read-out: Inhibition, 10 μM XL-647
T1 construct: NovaScreen

in vivo = settings: for AUC(0-t) / Cmax / half-life: po; for dosing terminated because of toxicity: 2 days
Procedure: The nonclinical Pharmacokinetics (PK) of XL-647 was studied in mice, rats, dogs, and monkeys. Animals were dosed either once or daily over several days, as described in Table 21 and 22 below. A summary of results can also be found in Tables 21 and 22 below. […] Mean tmax values were approximately 4 to 8 hours, and plasma terminal half-lives ranged from 9.41 to 20.9 hours.

[2] = target: T2, Norepinephrine Transporter (Homo sapiens, UniProt P23975); assay: NovaScreen assay; assay type: binding; settings: read-out: Inhibition, 10 μM XL-647
T2 construct: NovaScreen

[3] = test system: Muscarinic, Non-selective, Peripheral; assay: NovaScreen assay; assay type: binding
Glutamate, Kainate Site = assay: NovaScreen assay; assay type: binding
[4] = test system: Corticotropin Releasing Factor, Non-selective; assay: NovaScreen assay; assay type: binding
Sodium, Site 2 = assay: NovaScreen assay; assay type: binding
[5] = 7.5 mg/kg/day, PN Day 21, 7.5 mg/kg/day
[6] = 7.5 mg/kg/day, PN Day 21, listed as PRIM-001, 7.5 mg/kg/day

T2 sequence (P23975 whole entry, species assumed): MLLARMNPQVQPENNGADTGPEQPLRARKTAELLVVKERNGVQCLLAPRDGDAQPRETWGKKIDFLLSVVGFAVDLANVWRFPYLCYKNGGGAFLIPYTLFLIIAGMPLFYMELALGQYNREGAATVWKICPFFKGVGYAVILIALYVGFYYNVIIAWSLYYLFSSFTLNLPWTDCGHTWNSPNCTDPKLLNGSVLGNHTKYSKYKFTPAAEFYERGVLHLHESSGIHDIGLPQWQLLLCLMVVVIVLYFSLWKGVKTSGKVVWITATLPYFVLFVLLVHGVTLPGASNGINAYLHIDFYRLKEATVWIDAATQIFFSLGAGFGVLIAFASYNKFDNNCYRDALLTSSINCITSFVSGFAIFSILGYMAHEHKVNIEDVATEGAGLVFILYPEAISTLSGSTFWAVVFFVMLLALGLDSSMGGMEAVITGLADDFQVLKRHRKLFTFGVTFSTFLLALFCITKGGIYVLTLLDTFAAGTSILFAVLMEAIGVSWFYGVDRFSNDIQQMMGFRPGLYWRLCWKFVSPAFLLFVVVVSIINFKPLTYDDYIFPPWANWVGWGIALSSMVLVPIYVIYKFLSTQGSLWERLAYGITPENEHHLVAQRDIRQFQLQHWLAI
T1 sequence (P21452 whole entry): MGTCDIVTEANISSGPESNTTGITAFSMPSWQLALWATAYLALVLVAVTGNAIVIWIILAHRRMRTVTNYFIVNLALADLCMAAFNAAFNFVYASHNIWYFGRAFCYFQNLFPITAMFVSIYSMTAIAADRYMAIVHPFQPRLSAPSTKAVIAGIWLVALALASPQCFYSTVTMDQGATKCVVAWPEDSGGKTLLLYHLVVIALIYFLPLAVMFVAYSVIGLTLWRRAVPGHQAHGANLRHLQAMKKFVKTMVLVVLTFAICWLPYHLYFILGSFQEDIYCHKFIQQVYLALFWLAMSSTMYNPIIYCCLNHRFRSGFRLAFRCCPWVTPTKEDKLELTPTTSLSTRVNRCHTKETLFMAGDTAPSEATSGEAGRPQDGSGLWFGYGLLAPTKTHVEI

With `COc1cc2c(Nc3ccc(Cl)c(Cl)c3F)ncnc2cc1OC[C@@H]1C[C@@H]2CN(C)C[C@@H]2C1` [XL-647, N-(3,4-dichloro-2-fluorophenyl)-7-({[(3aR,5r,6aS)-2-methyloctahydrocyclopenta[c]pyrrol-5-yl]methyl}oxy)-6-(methyloxy)quinazolin-4-amine] the “decrease of CT-CI” value (bpk mice; 7.5 mg/kg q.d.) was 25%, the “decrease of KW/BW” value (bpk mice; 7.5 mg/kg q.d.) was 21.5% and the decrease of creatinine (bpk mice; 7.5 mg/kg q.d.) was 8.3%. For the same molecule, the “improvement of MUCA” value (bpk mice; 7.5 mg/kg q.d.) was 20.1%, the “reduction of kidney weight” value (bpk mice; 7.5 mg/kg q.d.) was 21.8% and the “decrease of BUN” value (bpk mice; 7.5 mg/kg q.d., 7.5 mg/kg) was 42%. For the same molecule, the BUN (bpk mice; 7.5 mg/kg/day, PN Day 21) was 63.43 mg/dL, the CT-CI (bpk mice; 7.5 mg/kg/day, PN Day 21) was 3.60 and the Creatinine (bpk mice; 7.5 mg/kg/day, PN Day 21) was 0.44 mg/dL. For the same molecule, the MUCA (bpk mice; 7.5 mg/kg/day, PN Day 21) was 560.0 mOsmol, the “Kidney Weight” value (bpk mice; [5]) was 1.61 ± 0.23 g and the Kidney/Body weight (bpk mice; [5]) was 15.34±1.26%. For the same molecule, the “Kidney Weight” value (bpk mice; [6]) was 1.61 g, the Kidney/Body weight (bpk mice; [6]) was 15.34% and the “decrease of BUN” value (bpk mice; 15 mg/kg q.d.) was 60.5%. The “decrease of CT-CI” value (bpk mice; 15 mg/kg q.d.) was 45.8%, the decrease of creatinine (bpk mice; 15 mg/kg q.d.) was 25% and the “improvement of MUCA” value (bpk mice; 15 mg/kg q.d.) was 66.2%. The “reduction of kidney weight” value (bpk mice; 15 mg/kg q.d.) was 40.3%, the BUN (bpk mice; 15 mg/kg/day, PN Day 21) was 43.20 mg/dL and the CT-CI (bpk mice; 15 mg/kg/day, PN Day 21) was 2.60. It also gave a Creatinine (bpk mice; 15 mg/kg/day, PN Day 21) of 0.36 mg/dL, a Kidney/Body weight (bpk mice; 15 mg/kg/day, PN Day 21) of 12.36% and an MUCA (bpk mice; 15 mg/kg/day, PN Day 21) of 775.0 mOsmol. For the same molecule, the “Kidney Weight” value (bpk mice; 15 mg/kg/day, PN Day 21, 15 mg/kg/day) was 1.28 ± 0.09 g, the “Kidney Weight” value (bpk mice; 15 mg/kg/day, PN Day 21, listed as PRIM-001, 15 mg/kg/day) was 1.28 g and the inhibition at 10 µM [1] was 34.2%. For the same molecule, the AUC(0-t) (in vivo; female, dog, 100 mg/kg) was 21200 ng·h/mL, the Cmax (in vivo; female, dog, 100 mg/kg) was 1100 ng/mL and the half-life (in vivo; female, dog, 100 mg/kg) was 14.2 h. For the same molecule, the AUC(0-t) (in vivo; female, dog, 300 mg/kg) was 17100 ng·h/mL, the Cmax (in vivo; female, dog, 300 mg/kg) was 1610 ng/mL and the half-life (in vivo; female, dog, 300 mg/kg) was 12.1 h. For the same molecule, the AUC(0-t) (in vivo; female, dog, 1000 mg/kg) was 34200 ng·h/mL, the Cmax (in vivo; female, dog, 1000 mg/kg) was 5090 ng/mL and the half-life (in vivo; female, dog, 1000 mg/kg) was 16.1 h. For the same molecule, the AUC(0-t) (in vivo; female, monkey, 2 mg/kg) was 450 ng·h/mL, the Cmax (in vivo; female, monkey, 2 mg/kg) was 38 ng/mL and the AUC(0-t) (in vivo; female, monkey, 6 mg/kg) was 1690 ng·h/mL. For the same molecule, the Cmax (in vivo; female, monkey, 6 mg/kg) was 116 ng/mL, the AUC(0-t) (in vivo; female, monkey, 10 mg/kg) was 4270 ng·h/mL and the Cmax (in vivo; female, monkey, 10 mg/kg) was 216 ng/mL. The half-life (in vivo; female, monkey, 10 mg/kg) was 14.9 h, the AUC(0-t) (in vivo; female, monkey, 20 mg/kg) was 3910 ng·h/mL and the Cmax (in vivo; female, monkey, 20 mg/kg) was 202 ng/mL. It also gave a half-life (in vivo; female, monkey, 50 mg/kg) of 14.8 h, an AUC(0-t) (in vivo; female, monkey, 100 mg/kg) of 28000 ng·h/mL and a Cmax (in vivo; female, monkey, 100 mg/kg) of 2160 ng/mL. The half-life (in vivo; female, monkey, 100 mg/kg) was 11.6 h, the AUC(0-t) (in vivo; female, monkey, 150 mg/kg) was 7030 ng·h/mL and the Cmax (in vivo; female, monkey, 150 mg/kg) was 379 ng/mL. The half-life (in vivo; female, monkey, 150 mg/kg) was 20.4 h, the AUC(0-t) (in vivo; male, dog, 100 mg/kg) was 8970 ng·h/mL and the Cmax (in vivo; male, dog, 100 mg/kg) was 407 ng/mL. It also gave a half-life (in vivo; male, dog, 100 mg/kg) of 10.4 h, an AUC(0-t) (in vivo; male, dog, 300 mg/kg) of 7790 ng·h/mL and a Cmax (in vivo; male, dog, 300 mg/kg) of 936 ng/mL. For the same molecule, the half-life (in vivo; male, dog, 300 mg/kg) was 12.7 h, the AUC(0-t) (in vivo; male, dog, 1000 mg/kg) was 27300 ng·h/mL and the Cmax (in vivo; male, dog, 1000 mg/kg) was 3770 ng/mL. It also gave a half-life (in vivo; male, dog, 1000 mg/kg) of 13.2 h, an AUC(0-t) (in vivo; male, monkey, 2 mg/kg) of 488 ng·h/mL and a Cmax (in vivo; male, monkey, 2 mg/kg) of 28.4 ng/mL. For the same molecule, the AUC(0-t) (in vivo; male, monkey, 6 mg/kg) was 1860 ng·h/mL, the Cmax (in vivo; male, monkey, 6 mg/kg) was 106 ng/mL and the AUC(0-t) (in vivo; male, monkey, 10 mg/kg) was 3630 ng·h/mL. It also gave a Cmax (in vivo; male, monkey, 10 mg/kg) of 230 ng/mL, a half-life (in vivo; male, monkey, 10 mg/kg) of 14.7 h and an AUC(0-t) (in vivo; male, monkey, 20 mg/kg) of 3900 ng·h/mL. For the same molecule, the Cmax (in vivo; male, monkey, 20 mg/kg) was 194 ng/mL, the half-life (in vivo; male, monkey, 50 mg/kg) was 20.5 h and the AUC(0-t) (in vivo; male, monkey, 100 mg/kg) was 19600 ng·h/mL. It also gave a Cmax (in vivo; male, monkey, 100 mg/kg) of 1220 ng/mL, a half-life (in vivo; male, monkey, 100 mg/kg) of 20.7 h and an AUC(0-t) (in vivo; male, monkey, 150 mg/kg) of 14500 ng·h/mL. For the same molecule, the Cmax (in vivo; male, monkey, 150 mg/kg) was 737 ng/mL, the half-life (in vivo; male, monkey, 150 mg/kg) was 19.8 h and the “dosing terminated because of toxicity observed on Days 6 and 7” value (in vivo; monkey, 20 mg/kg) was “then terminated because”. For the same molecule, the “dosing terminated because of toxicity” value (in vivo; monkey, 50 mg/kg) was “bid × 2, then terminated”, the “dosing terminated because of toxicity” value (in vivo; monkey, 100 mg/kg) was “qd × 2, then terminated” and the “dosing terminated because of toxicity” value (in vivo; monkey, 300 mg/kg) was “qd × 2, then terminated”. It also gave an AUC(0-t) (in vivo; rat, 1 mg/kg) of 198 ng·h/mL, a Cmax (in vivo; rat, 1 mg/kg) of 12.7 ng/mL and a half-life (in vivo; rat, 1 mg/kg) of 14.4 h. It also gave an AUC(0-t) (in vivo; rat, 3 mg/kg) of 776 ng·h/mL, a Cmax (in vivo; rat, 3 mg/kg) of 50.4 ng/mL and a half-life (in vivo; rat, 3 mg/kg) of 20.4 h. It also gave an AUC(0-t) (in vivo; rat, 30 mg/kg) of 5740 ng·h/mL, a Cmax (in vivo; rat, 30 mg/kg) of 319 ng/mL and a half-life (in vivo; rat, 30 mg/kg) of 20.4 h. It also gave an AUC(0-t) (in vivo; rat, 100 mg/kg) of 18300 ng·h/mL, a Cmax (in vivo; rat, 100 mg/kg) of 909 ng/mL and an AUC(0-t) (in vivo; rat, 200 mg/kg) of 29500 ng·h/mL. The Cmax (in vivo; rat, 200 mg/kg) was 1000 ng/mL, the AUC(0-t) (in vivo; rat, 600 mg/kg) was 41200 ng·h/mL and the Cmax (in vivo; rat, 600 mg/kg) was 1330 ng/mL. For the same molecule, the AUC(0-t) (in vivo; rat, 2000 mg/kg) was 53000 ng·h/mL, the Cmax (in vivo; rat, 2000 mg/kg) was 1690 ng/mL and the inhibition at 10 µM [2] was -5.38%. The IC50 [3] was 2650 nM, the “Inhibition, 10 μM XL-647” value ([3]; 10 μM) was 87.74% and the “Inhibition, 10 μM XL-647” value (Glutamate, Kainate Site) was 0.89%. For the same molecule, the “Inhibition, 10 μM XL-647” value [4] was 32.32% and the “Inhibition, 10 μM XL-647” value (Sodium, Site 2) was 88.06%.
